One block for each compound: values may come before it.
Experiments:
[1] = Drug interaction trials: effect of dolutegravir on pharmacokinetics of coadministered drugs
Description: (§1) These recommendations are based on either drug interaction trials of individual components or predicted interactions due to the expected magnitude of interaction and potential for serious adverse events or loss of efficacy.

[2] = human, in vivo
[3] = human, in vivo; remark: listed apart in the source
[4] = Drug interaction trials: effect of rilpivirine on pharmacokinetics of coadministered drugs; details: No Effect = 1.00
[5] = Established and other potentially significant drug interactions with JULUCA (effect on concentration); assay type: in vivo, human; details: based on drug interaction trials or predicted interactions
Description: as §1

[6] = Solubilities of non-micronized dolutegravir sodium in various solvents at 25° C.; assay type: physicochemical
[7] = Pre-dose concentrations of DTG and RPV at Weeks 4, 24 and 48 or withdrawal in participants switching to DTG + RPV; assay type: in vivo, human
Protocol: (§2) First set of participants (DTG 50 mg) received DIG 50 mg+RPV 25 mg together once daily, with a meal, in an open-label fashion up to Week 52 during early switch phase. Second set of participants (RPV 25 mg) also received DTG 50 mg+RPV 25 mg together once daily, with a meal, in an open-label fashion up to Week 52 during early switch phase.
(§3) First set of participants (DTG 50 mg) received DTG 50 mg+RPV 25 mg together once daily, with a meal, in an open-label fashion up to Week 52 during early switch phase. Second set of participants (RPV 25 mg) also received DTG 50 mg+RPV 25 mg together once daily, with a meal, in an open-label fashion up to Week 52 during early switch phase.

[8] = Pre-dose concentrations of DTG and RPV at Weeks 2, 4 and 8 in the first 20 participants who switch from EFV or NVP to DTG + RPV; assay type: in vivo, human
Protocol: as §2, §3

[9] = Solubilities of rilpivirine hydrochloride in various aqueous media; assay type: physicochemical
[10] = metformin 500 mg twice daily, dolutegravir 50 mg once daily
[11] = metformin 500 mg twice daily, dolutegravir 50 mg twice daily

Compound: COC(=O)N[C@H](C(=O)N1CCC[C@H]1c1nc(-c2ccc(-c3ccc(-c4c[nH]c([C@@H]5CCCN5C(=O)[C@@H](NC(=O)OC)C(C)C)n4)cc3)cc2)c[nH]1)C(C)C [Daclatasvir]
Cmax of coadministered drug, geometric mean ratio with/without dolutegravir ([1]; No Effect = 1.00): 1.03
Cτ or C24 of coadministered drug, geometric mean ratio with/without dolutegravir ([1]; No Effect = 1.00): 1.06

Compound: CN(C)C(=N)N=C(N)N [Metformin]
AUC of coadministered drug, geometric mean ratio with/without dolutegravir [1, 10]: 1.79
Cmax of coadministered drug, geometric mean ratio with/without dolutegravir [1, 10]: 1.66
AUC of coadministered drug, geometric mean ratio with/without dolutegravir [1, 11]: 2.45
Cmax of coadministered drug, geometric mean ratio with/without dolutegravir [1, 11]: 2.11
Effect on Concentration of the concomitant drug [5]: ↑Metformin
AUC of coadministered drug, geometric mean ratio with/without EDURANT [3]: 0.97
Cmax of coadministered drug, geometric mean ratio with/without EDURANT [3]: 1.02

Compound: COc1ccc2[nH]c([S+]([O-])Cc3ncc(C)c(OC)c3C)nc2c1 (stereo not drawn) [Omeprazole]
Rilpivirine AUC, geometric mean ratio with/without coadministered drug [2]: 0.60
Rilpivirine Cmax, geometric mean ratio with/without coadministered drug [2]: 0.60
Rilpivirine Cmin, geometric mean ratio with/without coadministered drug [2]: 0.67
Effect on Concentration of Rilpivirine ([5]; concomitant drug with JULUCA): ↓Rilpivirine
AUC of coadministered drug, geometric mean ratio with/without EDURANT [3]: 0.86
Cmax of coadministered drug, geometric mean ratio with/without EDURANT [3]: 0.86

Compound: CCCc1nn(C)c2c(=O)[nH]c(-c3cc(S(=O)(=O)N4CCN(C)CC4)ccc3OCC)nc12 [Sildenafil]
Rilpivirine AUC, geometric mean ratio with/without coadministered drug [2]: 0.98
Rilpivirine Cmax, geometric mean ratio with/without coadministered drug [2]: 0.92
Rilpivirine Cmin, geometric mean ratio with/without coadministered drug [2]: 1.04
AUC of coadministered drug, geometric mean ratio with/without EDURANT [3]: 0.97
Cmax of coadministered drug, geometric mean ratio with/without EDURANT [3]: 0.93

Compound: C[C@@H]1CCO[C@H]2Cn3cc(C(=O)NCc4ccc(F)cc4F)c(=O)c([O-])c3C(=O)N12.[Na+] [dolutegravir sodium, sodium (4R,12aS)-9-{[(2,4-difluorophenyl)methyl]carbamoyl}-4-methyl-6,8-dioxo-3,4,6,8,12,12a-hexahydro-2H-pyrido[1′,2′:4,5]pyrazino[2,1-b][1,3]oxazin-7-olate]
Descriptor (solubility) ([6]; FaSSIF, pH 6.5, 25° C.): Very slightly soluble
Descriptor (solubility) ([6]; FaSSIF, pH 6.5, 25° C., listed as Non-micronized dolutegravir sodium): very slightly soluble
Descriptor (solubility) ([6]; FeSSIF, pH 5.0, 25° C.): Very slightly soluble
Descriptor (solubility) ([6]; FeSSIF, pH 5.0, 25° C., listed as Non-micronized dolutegravir sodium): very slightly soluble
Descriptor (solubility) ([6]; SGF, pH 1.2, 25° C.): Practically insoluble
Descriptor (solubility) ([6]; SGF, pH 1.2, 25° C., listed as Non-micronized dolutegravir sodium): practically insoluble
Descriptor (solubility) ([6]; Water, solution pH 10.1, 25° C.): Slightly soluble
Descriptor (solubility) ([6]; Water, solution pH 10.1, 25° C., listed as Dolutegravir sodium): slightly soluble
solubility at 8 h ([6]; simulated gastric fluid, thermodynamic from solid, SGF, pH 1.2, 25° C., 8 hours): 21 µg/mL
solubility at 4 h ([6]; thermodynamic from solid, FaSSIF, pH 6.5, 25° C., 4 hours): 239 µg/mL
solubility at 4 h ([6]; thermodynamic from solid, FeSSIF, pH 5.0, 25° C., 4 hours): 170 µg/mL
solubility at 4 h ([6]; thermodynamic from solid, Water, solution pH 10.1, 25° C., equilibrium after 4 hours): 3180 µg/mL
Pre-dose concentration, Mean ± Standard Deviation ([7]; Example 3 (Table 10), Week 4): 1581.06 ± 1146.860 µg/L
Pre-dose concentration, Mean ± Standard Deviation ([7]; Example 3 (Table 10), Week 24): 1835.68 ± 1120.539 µg/L
Pre-dose concentration, Mean ± Standard Deviation ([7]; Example 3 (Table 10), Week 48): 1915.11 ± 1304.238 µg/L
Pre-dose concentration, Mean ± Standard Deviation ([7]; Example 5 (Table 13), Week 4): 1578.88 ± 1170.967 µg/L
Pre-dose concentration, Mean ± Standard Deviation ([7]; Example 5 (Table 13), Week 24): 1447.23 ± 917.677 µg/L
Pre-dose concentration, Mean ± Standard Deviation ([7]; Example 5 (Table 13), Week 48): 1384.36 ± 889.829 µg/L
Pre-dose concentration, Mean ± Standard Deviation ([8]; Example 3 (Table 10), Week 2): 821.25 ± 574.607 µg/L
Pre-dose concentration, Mean ± Standard Deviation ([8]; Example 3 (Table 10), Week 4): 994.00 ± 581.201 µg/L
Pre-dose concentration, Mean ± Standard Deviation ([8]; Example 3 (Table 10), Week 8): 1561.34 ± 1096.381 µg/L
Pre-dose concentration, Mean ± Standard Deviation ([8]; Example 5 (Table 13), Week 2): 834.58 ± 639.622 µg/L
Pre-dose concentration, Mean ± Standard Deviation ([8]; Example 5 (Table 13), Week 4): 1218.23 ± 842.703 µg/L
Pre-dose concentration, Mean ± Standard Deviation ([8]; Example 5 (Table 13), Week 8): 1472.50 ± 818.774 µg/L

Compound: Cc1cc(/C=C/C#N)cc(C)c1Nc1ccnc(Nc2ccc(C#N)cc2)n1.Cl [rilpivirine hydrochloride, 4-[[4-[[4-[(E)-2-cyanoethenyl]-2,6-dimethylphenyl]amino]-2-pyrimidinyl]amino]benzonitrile hydrochloride]
Descriptor (solubility) ([9]; 0.01N HCl, pH 2.0): Practically insoluble (Practically insoluble or Insoluble: Parts of solvent required for 1 part of solute: greater than or equal to 10,000)
Solubility ([9]; 0.01N HCl, pH 2.0, 20° C.): 0.003 g/100 mL
Descriptor (solubility) ([9]; 0.1N HCl, pH 1.1): Practically insoluble (Practically insoluble or Insoluble: Parts of solvent required for 1 part of solute: greater than or equal to 10,000)
Solubility ([9]; 0.1N HCl, pH 1.1, 20° C.): <0.001 g/100 mL
Descriptor (solubility) ([9]; 0.1N NaOH, pH 12.9): Practically insoluble (Practically insoluble or Insoluble: Parts of solvent required for 1 part of solute: greater than or equal to 10,000)
Solubility ([9]; 0.1N NaOH, pH 12.9, 20° C.): <0.001 g/100 mL
Descriptor (solubility) ([9]; Borate-KCl, pH 8.9): Practically insoluble (Practically insoluble or Insoluble: Parts of solvent required for 1 part of solute: greater than or equal to 10,000)
Solubility ([9]; Borate-KCl, pH 8.9, 20° C.): <0.001 g/100 mL
Descriptor (solubility) ([9]; Citrate-HCl, pH 2.0): Practically insoluble (Practically insoluble or Insoluble: Parts of solvent required for 1 part of solute: greater than or equal to 10,000)
Solubility ([9]; Citrate-HCl, pH 2.0, 20° C.): <0.001 g/100 mL
Descriptor (solubility) ([9]; Citrate-NaOH, pH 5.0): Practically insoluble (Practically insoluble or Insoluble: Parts of solvent required for 1 part of solute: greater than or equal to 10,000)
Solubility ([9]; Citrate-NaOH, pH 5.0, 20° C.): <0.001 g/100 mL
Descriptor (solubility) ([9]; Phosphate Buffer, pH 6.9): Practically insoluble (Practically insoluble or Insoluble: Parts of solvent required for 1 part of solute: greater than or equal to 10,000)
Solubility ([9]; Phosphate Buffer, pH 6.9, 20° C.): <0.001 g/100 mL
Descriptor (solubility) ([9]; Phosphate-NaOH, pH 11.9): Practically insoluble (Practically insoluble or Insoluble: Parts of solvent required for 1 part of solute: greater than or equal to 10,000)
Solubility ([9]; Phosphate-NaOH, pH 11.9, 20° C.): <0.001 g/100 mL
Descriptor (solubility) ([9]; Water, solution pH 2.2): Practically insoluble (Practically insoluble or Insoluble: Parts of solvent required for 1 part of solute: greater than or equal to 10,000)
Solubility ([9]; Water, solution pH 2.2, 20° C.): 0.001 g/100 mL
Descriptor (solubility) ([9]; aqueous media (Table 16)): practically insoluble
Pre-dose concentration, Mean ± Standard Deviation ([7]; Example 3 (Table 10), Week 4): 92.046 ± 138.2880 µg/L
Pre-dose concentration, Mean ± Standard Deviation ([7]; Example 3 (Table 10), Week 24): 87.875 ± 39.1412 µg/L
Pre-dose concentration, Mean ± Standard Deviation ([7]; Example 3 (Table 10), Week 48): 95.405 ± 48.2978 µg/L
Pre-dose concentration, Mean ± Standard Deviation ([7]; Example 5 (Table 13), Week 4): 79.504 ± 38.2305 µg/L
Pre-dose concentration, Mean ± Standard Deviation ([7]; Example 5 (Table 13), Week 24): 90.207 ± 46.3022 µg/L
Pre-dose concentration, Mean ± Standard Deviation ([7]; Example 5 (Table 13), Week 48): 91.799 ± 47.1371 µg/L
Pre-dose concentration, Mean ± Standard Deviation ([8]; Example 3 (Table 10), Week 2): 65.360 ± 31.2965 µg/L
Pre-dose concentration, Mean ± Standard Deviation ([8]; Example 3 (Table 10), Week 4): 67.374 ± 27.5663 µg/L
Pre-dose concentration, Mean ± Standard Deviation ([8]; Example 3 (Table 10), Week 8): 77.416 ± 37.7129 µg/L
Pre-dose concentration, Mean ± Standard Deviation ([8]; Example 5 (Table 13), Week 2): 57.342 ± 29.5436 µg/L
Pre-dose concentration, Mean ± Standard Deviation ([8]; Example 5 (Table 13), Week 4): 78.338 ± 31.4825 µg/L
Pre-dose concentration, Mean ± Standard Deviation ([8]; Example 5 (Table 13), Week 8): 79.652 ± 40.7546 µg/L

Further lines, results first:

Cmax of coadministered drug, geometric mean ratio with/without dolutegravir ([1]; No Effect = 1.00): 0.89
Cτ or C24 of coadministered drug, geometric mean ratio with/without dolutegravir ([1]; No Effect = 1.00): 0.93
Compound: C#C[C@]1(O)CC[C@H]2[C@@H]3CCC4=CC(=NO)CC[C@@H]4[C@H]3CC[C@@]21CC (mixture of isomers) [Norelgestromin]

Rilpivirine AUC, geometric mean ratio with/without coadministered drug [2]: 1.16
Rilpivirine Cmax, geometric mean ratio with/without coadministered drug [2]: 1.09
Rilpivirine Cmin, geometric mean ratio with/without coadministered drug [2]: 1.26
AUC of coadministered drug, geometric mean ratio with/without EDURANT [3]: 0.91
Cmax of coadministered drug, geometric mean ratio with/without EDURANT [3]: 0.97
Compound: CC(=O)Nc1ccc(O)cc1 [Acetaminophen]

Cmax of coadministered drug, geometric mean ratio with/without dolutegravir ([1]; No Effect = 1.00): 0.99
Cτ or C24 of coadministered drug, geometric mean ratio with/without dolutegravir ([1]; No Effect = 1.00): 1.02
Cmin of coadministered drug, geometric mean ratio with/without EDURANT [4]: 1.09
AUC of coadministered drug, geometric mean ratio with/without EDURANT [3]: 1.14
Cmax of coadministered drug, geometric mean ratio with/without EDURANT [3]: 1.17
Compound: C#C[C@]1(O)CC[C@H]2[C@@H]3CCc4cc(O)ccc4[C@H]3CC[C@@]21C [Ethinyl estradiol]

Reference: US12011506B2, “Combination and uses and treatments thereof” (priority 2017, dated 2024)
